Data on three compounds can be found in ChEMBL document CHEMBL2331425, “Triazolo and imidazo dihydropyrazolopyrimidine potassium channel antagonists” (Bioorg Med Chem Lett, 2013).

One data set deals with Cytochrome P450 3A4 (Homo sapiens, UniProt P08684). Briefly: Inhibition of CYP3A4 (unknown origin). The data set is classed as ADME.
Another data set concerns the target Cytochrome P450 2C9 (Homo sapiens, UniProt P11712). Briefly: Inhibition of CYP2C9 (unknown origin). The data set is classed as ADME.
The target in data set [1] is T1, Nuclear receptor subfamily 1 group I member 2 (Homo sapiens, UniProt O75469).
T1 sequence (O75469 whole entry): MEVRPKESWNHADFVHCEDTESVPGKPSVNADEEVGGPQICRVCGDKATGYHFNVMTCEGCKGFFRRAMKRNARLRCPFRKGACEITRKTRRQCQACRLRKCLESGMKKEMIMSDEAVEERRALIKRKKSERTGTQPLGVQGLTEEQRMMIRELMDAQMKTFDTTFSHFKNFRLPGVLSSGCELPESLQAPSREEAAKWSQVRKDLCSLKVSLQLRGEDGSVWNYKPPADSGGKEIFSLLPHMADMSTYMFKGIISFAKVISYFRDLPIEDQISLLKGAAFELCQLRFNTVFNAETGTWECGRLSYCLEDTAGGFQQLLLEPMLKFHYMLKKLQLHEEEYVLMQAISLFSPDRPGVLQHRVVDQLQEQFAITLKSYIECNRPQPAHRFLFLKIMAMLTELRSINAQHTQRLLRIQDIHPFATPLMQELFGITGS
Briefly: Transactivation of PXR (unknown origin).

The target in another data set is T2, Cytochrome P450 1A2 (Homo sapiens, UniProt P05177).
T2 sequence (P05177 whole entry): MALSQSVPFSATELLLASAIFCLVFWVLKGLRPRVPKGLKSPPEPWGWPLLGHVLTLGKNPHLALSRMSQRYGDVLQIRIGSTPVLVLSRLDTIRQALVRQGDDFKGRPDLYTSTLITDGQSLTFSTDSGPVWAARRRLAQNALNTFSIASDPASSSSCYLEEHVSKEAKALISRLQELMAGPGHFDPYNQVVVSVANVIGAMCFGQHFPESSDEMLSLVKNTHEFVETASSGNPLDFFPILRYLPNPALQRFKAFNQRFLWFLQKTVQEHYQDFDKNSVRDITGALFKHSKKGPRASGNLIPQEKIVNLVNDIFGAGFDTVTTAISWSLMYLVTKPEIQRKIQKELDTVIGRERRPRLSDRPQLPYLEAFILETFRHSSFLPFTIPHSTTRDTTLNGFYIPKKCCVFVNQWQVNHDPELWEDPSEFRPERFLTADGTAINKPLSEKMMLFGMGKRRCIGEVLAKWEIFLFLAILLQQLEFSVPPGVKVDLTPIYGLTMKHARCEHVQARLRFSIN
Description: Inhibition of CYP1A2 (unknown origin). It is filed as ADME.

A further data set deals with Cytochrome P450 2D6 (Homo sapiens, UniProt P10635). Briefly: Inhibition of CYP2D6 (unknown origin). It is filed as ADME.
Chain of Cytochrome P450 2D6 (P10635 whole entry): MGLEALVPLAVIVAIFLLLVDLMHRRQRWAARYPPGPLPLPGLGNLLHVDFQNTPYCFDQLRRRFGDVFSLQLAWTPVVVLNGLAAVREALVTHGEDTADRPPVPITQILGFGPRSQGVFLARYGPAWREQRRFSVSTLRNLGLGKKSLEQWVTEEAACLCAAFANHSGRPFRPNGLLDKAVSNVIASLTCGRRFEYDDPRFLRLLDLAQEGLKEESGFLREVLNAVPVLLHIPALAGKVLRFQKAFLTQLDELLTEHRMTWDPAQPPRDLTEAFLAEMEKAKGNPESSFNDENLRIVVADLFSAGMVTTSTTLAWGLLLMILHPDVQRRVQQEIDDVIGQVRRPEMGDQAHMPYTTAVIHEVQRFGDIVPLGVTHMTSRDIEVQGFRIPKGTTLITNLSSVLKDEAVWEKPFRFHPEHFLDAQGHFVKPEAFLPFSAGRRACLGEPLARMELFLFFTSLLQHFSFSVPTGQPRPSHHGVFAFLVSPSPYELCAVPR
The target in data set [2] is Potassium voltage-gated channel subfamily A member 5 (Homo sapiens, UniProt P22460). Briefly: Antagonist activity at human Kv1.5 expressed in mouse L929 cells assessed as inhibition of delayed rectifier repolarization current by patch clamp assay. It is filed as cell-based. For orientation: The patch-clamp technique gives a direct electrical read-out from membranes.
Chain of Potassium voltage-gated channel subfamily A member 5 (P22460 whole entry): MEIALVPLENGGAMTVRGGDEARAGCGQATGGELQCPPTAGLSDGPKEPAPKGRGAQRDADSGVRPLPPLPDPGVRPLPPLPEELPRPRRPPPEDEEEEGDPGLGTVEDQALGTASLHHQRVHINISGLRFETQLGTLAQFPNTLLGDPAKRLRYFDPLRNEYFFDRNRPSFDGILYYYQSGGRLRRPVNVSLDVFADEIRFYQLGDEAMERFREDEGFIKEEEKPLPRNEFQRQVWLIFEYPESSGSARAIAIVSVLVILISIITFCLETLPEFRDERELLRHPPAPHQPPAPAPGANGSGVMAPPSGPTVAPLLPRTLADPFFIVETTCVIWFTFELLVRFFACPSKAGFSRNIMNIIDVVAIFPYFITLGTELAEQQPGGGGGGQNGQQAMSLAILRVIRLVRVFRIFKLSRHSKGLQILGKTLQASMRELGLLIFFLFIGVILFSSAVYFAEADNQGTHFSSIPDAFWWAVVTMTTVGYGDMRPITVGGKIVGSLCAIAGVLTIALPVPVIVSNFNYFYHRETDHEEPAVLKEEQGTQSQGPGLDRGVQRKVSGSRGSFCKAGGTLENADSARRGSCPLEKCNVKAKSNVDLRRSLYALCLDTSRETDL

The next data set addresses Cytochrome P450 2C19 (Homo sapiens, UniProt P33261). Description: Inhibition of CYP2C19 (unknown origin). It is filed as ADME.
Data set [3] deals with Voltage-gated inwardly rectifying potassium channel KCNH2 (Homo sapiens, UniProt Q12809). Briefly: Inhibition of human ERG current in HEK293 cells by patch clamp method. The data set is classed as cell-based.
Chain of Voltage-gated inwardly rectifying potassium channel KCNH2 (Q12809 whole entry): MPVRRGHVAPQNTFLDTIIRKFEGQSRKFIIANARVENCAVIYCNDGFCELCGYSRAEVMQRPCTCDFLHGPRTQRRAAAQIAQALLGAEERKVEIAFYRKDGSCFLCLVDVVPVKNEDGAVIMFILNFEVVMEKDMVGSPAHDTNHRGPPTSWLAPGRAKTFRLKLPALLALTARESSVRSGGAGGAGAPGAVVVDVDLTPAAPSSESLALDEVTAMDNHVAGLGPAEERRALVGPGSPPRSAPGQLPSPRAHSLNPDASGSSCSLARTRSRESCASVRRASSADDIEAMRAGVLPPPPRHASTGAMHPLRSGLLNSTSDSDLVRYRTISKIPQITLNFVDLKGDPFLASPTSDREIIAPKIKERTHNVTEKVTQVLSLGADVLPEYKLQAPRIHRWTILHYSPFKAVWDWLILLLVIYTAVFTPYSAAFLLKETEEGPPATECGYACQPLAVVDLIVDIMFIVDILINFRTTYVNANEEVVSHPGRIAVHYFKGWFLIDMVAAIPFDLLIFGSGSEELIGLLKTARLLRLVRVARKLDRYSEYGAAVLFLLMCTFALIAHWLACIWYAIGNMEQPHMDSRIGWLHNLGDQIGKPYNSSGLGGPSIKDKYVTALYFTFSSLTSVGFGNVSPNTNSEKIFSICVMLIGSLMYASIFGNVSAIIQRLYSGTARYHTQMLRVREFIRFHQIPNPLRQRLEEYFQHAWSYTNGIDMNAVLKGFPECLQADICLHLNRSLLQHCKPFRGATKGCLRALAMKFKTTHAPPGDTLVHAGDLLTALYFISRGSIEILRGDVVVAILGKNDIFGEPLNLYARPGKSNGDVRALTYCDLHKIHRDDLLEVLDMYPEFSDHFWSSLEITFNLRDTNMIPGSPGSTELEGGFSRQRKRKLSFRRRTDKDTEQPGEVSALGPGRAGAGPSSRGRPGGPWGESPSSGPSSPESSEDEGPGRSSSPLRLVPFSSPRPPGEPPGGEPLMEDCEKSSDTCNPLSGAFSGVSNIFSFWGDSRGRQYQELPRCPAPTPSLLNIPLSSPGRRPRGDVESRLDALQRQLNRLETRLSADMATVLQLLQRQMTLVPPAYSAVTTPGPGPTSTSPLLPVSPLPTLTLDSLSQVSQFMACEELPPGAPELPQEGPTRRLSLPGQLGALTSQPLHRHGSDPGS
The target of another data set is hERG (KCNH2) (Homo sapiens, UniProt Q12809). Briefly: Inhibition of human ERG current in HEK293 cells at 10 uM by patch clamp method relative to control. It is filed as cell-based. The settings on record: HEK293 cells expressing human ERG.
Chain of hERG (KCNH2) (Q12809 whole entry): as above
For data set [4], the target named is Voltage-gated L-type calcium channel (Homo sapiens, UniProt Q13936+Q13698+Q01668+O60840). Briefly: Inhibition of L-type calcium channel (unknown origin).
A short description of data set [5]: Clearance in Sprague-Dawley rat at 1 mg/kg, iv. It is filed as ADME, organism-based. Also noted: dose 1 mg/kg, route intravenous. The settings on record: in vivo.
Data set [6] can be described thus: Drug uptake in Sprague-Dawley rat brain at 0.3 mg/kg, iv administered as 5 mins infusion measured after 10 mins. The following applies: read-out: Drug uptake. It is filed as ADME, organism-based. Also noted: dose 0.3 mg/kg, route intravenous.
Data set [7] relates to Rattus norvegicus. Briefly: Antiarrhythmic activity in Sprague-Dawley rat assessed as decrease in ventricular effective refractory period at 0.3 mg/kg, iv administered as 5 mins infusion measured after 5 mins relative to control. It is filed as functional, Heart. Also noted: scale not given: the % may be the effect or the level left.
The nature of data set [8]: Plasma concentration in Sprague-Dawley rat at 0.3 mg/kg, iv administered as 5 mins infusion measured at 5 mins. The data set is classed as ADME, organism-based. Also noted: dose 0.3 mg/kg, route intravenous.
The test system of data set [9] is Rattus norvegicus. Briefly: Antiarrhythmic activity in Sprague-Dawley rat assessed as increase in heart rate at 0.3 mg/kg, iv administered as 5 mins infusion measured after 5 mins relative to control. It is filed as functional.
Data set [10] can be described thus: Inhibition of sodium channel (unknown origin). Also noted: species or system Homo sapiens.
The nature of data set [11]: Plasma concentration in Sprague-Dawley rat at 0.3 mg/kg, iv administered as 5 mins infusion measured after 10 mins. It is filed as ADME, organism-based. Also noted: dose 0.3 mg/kg, route intravenous.
Data set [12] relates to Rattus norvegicus. Description: Antiarrhythmic activity in Sprague-Dawley rat assessed as decrease in QT interval at 0.3 mg/kg, iv administered as 5 mins infusion measured after 5 mins relative to control. Also noted: scale not given: the % may be the effect or the level left. The data set is classed as functional, Heart.
Data set [13] deals with Rattus norvegicus. Briefly: Antiarrhythmic activity in Sprague-Dawley rat assessed as decrease in blood pressure at 0.3 mg/kg, iv administered as 5 mins infusion measured after 5 mins. The data set is classed as functional. Also noted: scale not given: the % may be the effect or the level left.
Data set [14] is described as follows: Half life in Sprague-Dawley rat at 1 mg/kg, iv. It is filed as ADME, organism-based. Also noted: dose 1 mg/kg, route intravenous. The following applies: in vivo.

Chain of Cytochrome P450 2C19 (P33261 whole entry): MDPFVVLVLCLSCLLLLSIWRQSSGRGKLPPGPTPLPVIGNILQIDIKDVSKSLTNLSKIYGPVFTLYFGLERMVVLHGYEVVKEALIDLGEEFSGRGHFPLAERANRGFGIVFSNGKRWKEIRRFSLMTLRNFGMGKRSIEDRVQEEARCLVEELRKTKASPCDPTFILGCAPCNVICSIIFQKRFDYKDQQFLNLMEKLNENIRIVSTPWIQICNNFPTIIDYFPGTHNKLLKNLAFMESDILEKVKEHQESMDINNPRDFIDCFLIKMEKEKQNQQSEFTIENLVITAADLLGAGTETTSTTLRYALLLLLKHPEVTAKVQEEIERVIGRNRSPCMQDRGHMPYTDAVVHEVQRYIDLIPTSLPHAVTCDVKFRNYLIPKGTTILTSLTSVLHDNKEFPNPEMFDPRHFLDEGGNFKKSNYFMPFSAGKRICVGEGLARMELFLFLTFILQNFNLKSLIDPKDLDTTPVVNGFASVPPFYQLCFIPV
Chain of Cytochrome P450 2C9 (P11712 whole entry): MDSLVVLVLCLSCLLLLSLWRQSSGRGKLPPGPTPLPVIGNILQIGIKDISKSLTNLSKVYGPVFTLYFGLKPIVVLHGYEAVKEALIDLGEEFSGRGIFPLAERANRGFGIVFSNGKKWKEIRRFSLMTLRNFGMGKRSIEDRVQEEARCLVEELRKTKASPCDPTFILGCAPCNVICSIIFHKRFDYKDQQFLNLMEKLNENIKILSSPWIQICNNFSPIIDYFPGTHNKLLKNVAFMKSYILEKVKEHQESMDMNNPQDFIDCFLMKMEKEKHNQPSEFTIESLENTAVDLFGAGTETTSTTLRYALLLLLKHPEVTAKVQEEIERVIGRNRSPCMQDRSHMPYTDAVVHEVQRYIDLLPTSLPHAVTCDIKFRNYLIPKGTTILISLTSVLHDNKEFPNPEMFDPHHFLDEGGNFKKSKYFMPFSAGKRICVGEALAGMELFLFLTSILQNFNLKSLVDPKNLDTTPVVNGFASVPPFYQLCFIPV
Chain of Cytochrome P450 3A4 (P08684 whole entry): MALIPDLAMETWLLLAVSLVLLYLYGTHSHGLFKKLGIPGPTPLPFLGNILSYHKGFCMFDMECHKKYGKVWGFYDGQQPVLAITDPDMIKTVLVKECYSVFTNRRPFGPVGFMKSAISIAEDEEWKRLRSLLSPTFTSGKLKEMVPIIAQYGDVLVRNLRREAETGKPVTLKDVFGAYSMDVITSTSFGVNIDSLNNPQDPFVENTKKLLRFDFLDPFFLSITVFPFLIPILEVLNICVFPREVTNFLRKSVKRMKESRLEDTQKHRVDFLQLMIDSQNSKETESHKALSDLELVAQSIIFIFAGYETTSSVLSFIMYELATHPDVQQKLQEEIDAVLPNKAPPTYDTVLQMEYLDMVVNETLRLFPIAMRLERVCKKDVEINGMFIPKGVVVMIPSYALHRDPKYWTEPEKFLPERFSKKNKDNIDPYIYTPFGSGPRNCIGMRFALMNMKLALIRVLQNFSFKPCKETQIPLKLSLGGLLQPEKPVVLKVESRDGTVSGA

For the compound `CC1=C(c2ncnn2C2CCC(C(F)(F)F)CC2)[C@@H](c2ccc(Cl)c(Cl)c2)n2nc(C(F)(F)F)cc2N1` (single isomer, unassigned; isomer 2), the INH was found to be 25 µM on Cytochrome P450 3A4; 8 µM at Cytochrome P450 2C9; 40 µM on Cytochrome P450 1A2; 27 µM on Cytochrome P450 2D6; 7 µM on Cytochrome P450 2C19. In data set [1], the EC20 (as a rule, the concentration at which the effect reaches the 20% level) came out at 3600 nM. Besides, the IC50 – broadly, the midpoint of a concentration-inhibition curve – in data set [2] came out at 607 nM.
In the case of `CC1=C(c2ncnn2C2CCCC2)[C@@H](c2ccc(Cl)c(Cl)c2)n2nccc2N1`, in [2], the IC50 turned out to be 37 nM. In [3], the INH was found to be 6 µM.
As to `CC1=C(c2ncnn2C2CCC(C(F)(F)F)CC2)[C@@H](c2ccc(Cl)c(Cl)c2)n2nc(C(F)(F)F)cc2N1` (single isomer, unassigned; isomer 1), testing at 10 µM against hERG (KCNH2) gave an inhibition of 38%. The results for the IC50 in data set [4], in data set [10] and in data set [2] were 5200 nM, 46000 nM and 133 nM, respectively. For the same compound, the clearance (as a rule, the rate of elimination divided by the concentration) in data set [5] was 29 mL/min/kg. Besides, the INH at Cytochrome P450 3A4 amounted to 40 µM; on Cytochrome P450 2C9, 7 µM; on Cytochrome P450 2D6 it was 22 µM; on Cytochrome P450 2C19 it was 6 µM. The compound also displayed an EC20 in [1] of 5000 nM. The concentration at 10 min in [6] came out at 30 nM; in [11] it was 430 nM. The Activity amounted to 25% with Rattus norvegicus [7], 6% with Rattus norvegicus [9], 8% in the data set on Rattus norvegicus [12] and 28% with Rattus norvegicus [13]. The concentration at 5 min in data set [8] was determined as 1600 nM. Also, the half-life (in general, the time needed for the level to fall by half in the phase considered) in [14] is 1.2 h.
